Here are results for two molecules from patent US20180264245A1, “Skin Care Applicator” (The Procter & Gamble Company, priority 2017, published 2018).

A short description of series [1]: Inositol in vitro skin penetration study (Franz Diffusion Cell assay). Type of series: in vitro ADME, human. The following applies: 0.5% inositol product, 24 hours; magnet with vibration vs. finger application or applicator incorporating a magnet; particularly in the epidermis; FIG. 6. How it is done:
Skin penetration was measured using the Franz Diffusion Cell assay. Split-thickness (dermatomed) human cadaver skin was thawed under ambient conditions, cut into appropriately sized sections, and mounted in standard Franz-type diffusion cells (0.79 cm^2 surface area) maintained at about 37° C. The receptor compartments were filled with 5 mL phosphate buffered saline (PBS-pH 7.4) that included 1% polysorbate-20 and 0.02% sodium azide, and the skin was allowed to equilibrate for two hours. The cells were qualified upon ^3H20 flux through the mounted skin (150 μL of ^3H20 applied for five minutes and removed; receptor fluid was collected after one hour and analyzed using scintillation spectrometry). […] Where indicated, aliquots of the test products/formulations were spiked with the appropriate radioactive material (^3H-inositol, ^14C-niacinamide, ^14[…] or ^14C-retinyl propionate) with approximately 3 μCi per 300 mg product aliquot, mixed and assayed for total radioactivity in triplicate using Ultima Gold [Perkin-Elmer] liquid scintillation cocktail (LSC) and liquid scintillation counting. […] Active materials in receptor phase, filter paper wipes and solubilized skin samples were quantified using liquid scintillation. […]

Series [2] is described as follows: Pal KTTKS in vivo skin penetration study (tape stripping). On the set-up: species or system human; key to significance of mean μg PalKTTKS/μg skin of Strip 6-10: “s” indicates significant difference vs. mean of passive (p < 0.1). The following applies: for μg PalKTTKS/μg skin of Strip 6-10: cream; for Enhancement for strip 6-10: w Vibration vs. w/o Vibration. How it is done: An in vivo skin penetration study was conducted to establish the effect of using a skin care product of the present invention by applying a skin care composition comprising a peptide, in this case, Pal KTTKS, with an applicator comprising a magnetic array and a vibration source. The study used 10 active study sites (composition applied to target skin surface using an applicator containing a magnetic array and vibration source of the present invention) versus 10 control study sites (composition applied to target skin surface using an applicator with just a magnetic array). In this example, the level of Pal KTTKS present in the extract from each tape strip was measured using HPLC and the results normalized to the protein level measured on the tape strip.
This method provides a suitable means of measuring the amount of skin care active present in skin, and comparing active versus passive application of the skin care active. Two identical circular areas of 7.9 cm^2 were marked on the volar forearms of volunteers. A measured dose (approximately 9 mg) of the skin care formulation (ingredients shown in Table 1) was applied to the delineated areas using a screw actuated syringe. Application was carried out in each case using purpose made applicators having a metallic aluminium skin contact surface behind which was the magnetic array. The cream was spread evenly across the entire delineated region using the applicator in a sweeping motion with a fixed speed of approximately 3.5 cm/s to mimic normal finger application. The application period was 30 seconds during which time visual inspection was used to ensure even distribution and absorption of the formulation by skin. The application area was then left uncovered for a further 30 minutes to ensure complete absorption. The application area was then wiped thoroughly to remove any surface material, followed by carrying out tape stripping.
The Tape Stripping method can be carried out using commercial pre-cut 22.1 mm tape stripping adhesive discs (D-Squame, Cuderm Corporation or equivalent) with an adhesive area of 3.8 cm^2. A 22.1 mm diameter circular region was marked at the centre of the application area. A tape stripping adhesive disc was placed over the marked area and even pressure applied using a neoprene roller, rolled ten times over the surface. The adhesive disc was removed from the skin surface in a single pulling motion using manual tweezers. To ensure even removal of the stratum corneum, subsequent discs were removed in a north, south, east and west orientation. Each adhesive disc was non-destructively analysed for relative protein content using the SquameScan™ 850 instrument (Heiland Electronics Wetzlar Germany). The adhesive disc was then immediately placed into a glass vial containing extraction solvent in preparation for subsequent analysis. Solvent extractions are conducted on each tape strip using conventional extraction methods, which are well known to those of ordinary skill in the art, and measuring the amount of niacinamide present in the extract, for example, by high performance liquid chromatography (“HPLC”) and/or mass spectrometry.
The procedure was repeated for the remaining nine strips. An additional strip was obtained from outside the area of application of the skin care formulation to serve as a blank sample.

For series [3] the following is noted: unit not given; cited from earlier work.

Structures are written as SMILES. Where a SMILES comes first, the peptide text is derived from it.

As for `OC1C(O)[C@H](O)[C@@H](O)C(O)[C@H]1O` (stereo in doubt) [inositol, cyclohexane-1,2,3,4,5,6-hexol], the “penetration into skin of inositol” value in series [1] is “significant increase in penetration into skin”.
On to `CCCCCCCCCCCCCCCC(=O)N[C@@H](CCCCN)C(=O)N[C@H](C(=O)N[C@H](C(=O)N[C@@H](CCCCN)C(=O)N[C@@H](CO)C(=O)O)[C@@H](C)O)[C@@H](C)O` [PalKTTKS, palimitoyl-lysine-threonine-threonine-lysine-serine] (HELM PEPTIDE1{[CCCCCCCCCCCCCCCC(=O)[*:2]].K.T.T.K.S}$$$$V2.0; C-terminus assumed), for which the “significance of mean μg PalKTTKS/μg skin of Strip 6-10” value in series [2] (Magnetic Micro array w Vibration, Mean, vs. mean of passive) is given as “s”. Besides, the “μg PalKTTKS/μg skin of Strip 6-10” value in series [2] (Magnetic Micro array w Vibration, Mean of 10 panelists) was found to be 0.02522 μg PalKTTKS/μg skin; in series [2] (Magnetic Micro array w Vibration, Panelist1), 0.01152 μg PalKTTKS/μg skin; in series [2] (Magnetic Micro array w Vibration, Panelist2), 0.02161 μg PalKTTKS/μg skin; in series [2] (Magnetic Micro array w Vibration, Panelist3), 0.01304 μg PalKTTKS/μg skin; in series [2] (Magnetic Micro array w Vibration, Panelist4), 0.0258 μg PalKTTKS/μg skin; in series [2] (Magnetic Micro array w Vibration, Panelist5), 0.0568 μg PalKTTKS/μg skin. Moreover, the “μg PalKTTKS/μg skin of Strip 6-10” value was 0.04369 μg PalKTTKS/μg skin in series [2] (Magnetic Micro array w Vibration, Panelist6); 0.02184 μg PalKTTKS/μg skin in series [2] (Magnetic Micro array w Vibration, Panelist7); 0.02081 μg PalKTTKS/μg skin in series [2] (Magnetic Micro array w Vibration, Panelist8); 0.01648 μg PalKTTKS/μg skin in series [2] (Magnetic Micro array w Vibration, Panelist9); 0.02061 μg PalKTTKS/μg skin in series [2] (Magnetic Micro array w Vibration, Panelist10); 0.02166 μg PalKTTKS/μg skin in series [2] (Magnetic Micro array w/o Vibration, Mean of 10 panelists). Besides, the “μg PalKTTKS/μg skin of Strip 6-10” value in series [2] (Magnetic Micro array w/o Vibration, Panelist1) turned out to be 0.0107 μg PalKTTKS/μg skin; in series [2] (Magnetic Micro array w/o Vibration, Panelist2), 0.01869 μg PalKTTKS/μg skin; in series [2] (Magnetic Micro array w/o Vibration, Panelist3), 0.00663 μg PalKTTKS/μg skin; in series [2] (Magnetic Micro array w/o Vibration, Panelist4) it was 0.01973 μg PalKTTKS/μg skin; in series [2] (Magnetic Micro array w/o Vibration, Panelist5), 0.05444 μg PalKTTKS/μg skin; in series [2] (Magnetic Micro array w/o Vibration, Panelist6), 0.03195 μg PalKTTKS/μg skin. Further, the “μg PalKTTKS/μg skin of Strip 6-10” value came out at 0.02902 μg PalKTTKS/μg skin in series [2] (Magnetic Micro array w/o Vibration, Panelist7); 0.01924 μg PalKTTKS/μg skin in series [2] (Magnetic Micro array w/o Vibration, Panelist8); 0.00638 μg PalKTTKS/μg skin in series [2] (Magnetic Micro array w/o Vibration, Panelist9); 0.01984 μg PalKTTKS/μg skin in series [2] (Magnetic Micro array w/o Vibration, Panelist10). Also, the “penetration of the active into skin” value in series [2] (applicator combining magnetic array with vibration source vs. control applicator with just a magnetic array) is recorded as “penetration of the active is enhanced”. Moreover, the “Enhancement for strip 6-10” value was 1.337 in series [2] (Mean); 1.077 in series [2] (Panelist1); 1.156 in series [2] (Panelist2); 1.966 in series [2] (Panelist3); 1.307 in series [2] (Panelist4); 1.043 in series [2] (Panelist5). In addition, the “Enhancement for strip 6-10” value in series [2] (Panelist6) was found to be 1.367; in series [2] (Panelist7), 0.7528; in series [2] (Panelist8) it was 1.081; in series [2] (Panelist9), 2.582; in series [2] (Panelist10) it was 1.039. Besides, the diamagnetic susceptibility entry in series [3] is given as “approximately −519”.
